Test results reported in patent EP4553080A1, “NUCLEOSIDE DERIVATIVES AS ANTIVIRAL AGENTS AGAINST CORONAVIRUSES” (Ustav Organicke Chemie a Biochemie AV CR, v.v.i., priority 2023, dated 2025).

Biological target: nsp14 methyltransferase from SARS-CoV-2 (Severe acute respiratory syndrome coronavirus 2, UniProt P0DTD1)
Assay: Nsp14 MTase activity inhibition in vitro (EchoMS assay)
Type: biochemical
Settings: recombinant nsp14 protein expressed in E. coli; dose-response curve

Row | Structure (SMILES) | IC50 [nM]
1 | C#Cc1cn([C@@H]2O[C@H](CSCc3c(C)noc3-c3ccccc3)[C@@H](O)[C@H]2O)c2ncnc(N)c12 [Compound 140b, (2R,3R,4S,5S)-2-(4-Amino-5-ethynyl-7H-pyrrolo[2,3-d]pyrimidin-7-yl)-5-((((3-methyl-5-phenylisoxazol-4-yl)methyl)thio)methyl)tetrahydrofuran-3,4-diol] | 30 to 100
2 | Cc1noc(-c2ccccc2)c1CSC[C@H]1O[C@@H](n2cc(C#Cc3nc4ccccc4[nH]3)c3c(N)ncnc32)[C@H](O)[C@@H]1O [Compound 179b, (2R,3R,4S,5S)-2-(5-((1H-Benzo[d]imidazol-2-yl)ethynyl)-4-amino-7H-pyrrolo[2,3-d]pyrimidin-7-yl)-5-((((3-methyl-5-phenylisoxazol-4-yl)methyl)thio)methyl)tetrahydrofiiran-3,4-diol] | 100 to 500
3 | Cc1ncn(-c2ccccc2)c1CSC[C@H]1O[C@@H](n2ccc3c(N)ncnc32)[C@H](O)[C@@H]1O [Compound 61c, (2R,3R,4S,5S)-2-(4-Amino-7H-pyrrolo[2,3-d]pyrimidin-7-yl)-5-((((4-methyl-1-phenyl-1H-imidazol-5-yl)methyl)thio)methyl)tetrahydrofuran-3,4-diol] | 100 to 500
4 | Cc1noc(-c2ccccc2)c1CSC[C@H]1O[C@@H](n2nc(CCCC#N)c3c(N)ncnc32)[C@H](O)[C@@H]1O [Compound 223b, 4-(4-Amino-1-((2R,3R,4S,5S)-3,4-dihydroxy-5-((((3-methyl-5-phenylisoxazol-4-yl)methyl)thio)methyl)tetrahydrofuran-2-yl)-1H-pyrazolo[3,4-d]pyrimidin-3-yl)butanenitrile] | 30 to 100
5 | Nc1ncnc2c1ccn2[C@@H]1O[C@H](CSCc2c(-c3ccccc3)noc2C2CC2)[C@@H](O)[C@H]1O [Compound 108c, (2R,3R,4S,5S)-2-(4-Amino-7H-pyrrolo[2,3-d]pyrimidin-7-yl)-5-((((5-cyclopropyl-3-phenylisoxazol-4-yl)methyl)thio)methyl)tetrahydrofuran-3,4-diol] | 100 to 500
6 | Nc1ncnc2c1ccn2[C@@H]1O[C@H](CSCc2cnsc2-c2ccccc2)[C@@H](O)[C@H]1O [Compound 103c, (2R,3R,4S,5S)-2-(4-Amino-7H-pyrrolo[2,3-d]pyrimidin-7-yl)-5-((((5-phenylisothlazol-4-yl)methyl)thio)methyl)tetrahydrofuran-3,4-diol] | 500 to 2000
7 | Cc1noc(-c2ccccc2)c1CSC[C@H]1O[C@@H](n2cc(/C=C/c3ccccc3)c3c(N)ncnc32)[C@H](O)[C@@H]1O [Compound 181b, (2R,3R,4S,5S)-2-(4-Amino-5-((E)-styryl)-7H-pyrrolo[2,3-d]pyrimidin-7-yl)-5-((((3-methyl-5-phenylisoxazol-4-yl)methyl)thio)methyl)tetrahydrofuran-3,4-diol] | 100 to 500
8 | Cc1snc(-c2ccccc2)c1CSC[C@H]1O[C@@H](n2ccc3c(N)ncnc32)[C@H](O)[C@@H]1O [Compound 59c, (2R,3R,4S,5S)-2-(4-Amino-7H-pyrrolo[2,3-d]pyrimidin-7-yl)-5-((((5-methyl-3-phenylisothiazol-4-yl)methyl)thio)methyl)tetrahydrofuran-3,4-diol] | 30 to 100
9 | CCCCCc1cn([C@@H]2O[C@H](CSCc3c(C)noc3-c3ccccc3)[C@@H](O)[C@H]2O)c2ncnc(N)c12 [Compound 132b, (2R,3R,4S,5S)-2-(4-Amino-5-pentyl-7H-pyrrolo[2,3-d]pyrimidin-7-yl)-5-((((3-methyl-5-phenylisoxazol-4-yl)methyl)thio)methyl)tetrahydrofuran-3,4-diol] | 500 to 2000
10 | Cc1noc(-c2ccccc2)c1CSC[C@H]1O[C@@H](n2cc(-c3ccc(N)cc3)c3c(N)ncnc32)[C@H](O)[C@@H]1O [Compound 157] | 30 to 100
11 | Cc1noc(-c2ccccc2)c1CSC[C@H]1O[C@@H](n2cc(C#Cc3ccc(C(N)=O)cc3)c3c(N)ncnc32)[C@H](O)[C@@H]1O [Compound 169b, 4-((4-Amino-7-((2R,3R,4S,5S)-3,4-dihydroxy-5-((((3-methyl-5-phenylisoxazol-4-yl)methyl)thio)methyl)tetrahydrofuran-2-yl)-7H-pyrrolo[2,3-d]pyrimidin-5-yl)ethynyl)benzamide] | 30 to 100
12 | Cc1noc(-c2ccc3c(c2)OCO3)c1CSC[C@H]1O[C@@H](n2cc(C#Cc3cncnc3)c3c(N)ncnc32)[C@H](O)[C@@H]1O [Compound 243c, (2R,3R,4S,5S)-2-(4-Amino-5-(pyrimidin-5-ylethynyl)-7H-pyrrolo[2,3-d]pyrimidin-7-yl)-5-((((5-(benzo[d][1,3]dioxol-5-yl)-3-methylisoxazol-4-yl)methyl)thio)methyl)tetrahydrofuran-3,4-diol] | 10 to 30
13 | Cc1noc(-c2cccc3ccccc23)c1CSC[C@H]1O[C@@H](n2ccc3c(N)ncnc32)[C@H](O)[C@@H]1O [Compound 100c, (2R,3R,4S,5S)-2-(4-Amino-7H-pyrrolo[2,3-d]pyrimidin-7-yl)-5-((((3-methyl-5-(naphthalen-1-yl)isoxazol-4-yl)methyl)thio)methyl)tetrahydrofuran-3,4-diol] | 10 to 30
14 | Cc1noc(-c2ccccc2)c1CSC[C@H]1O[C@@H](n2cc(Cc3ccc4ccccc4c3)c3c(N)ncnc32)[C@H](O)[C@@H]1O [Compound 186b, (2R,3R,4S,5S)-2-(4-Amino-5-(naphthalen-2-ylmethyl)-7H-pyrrolo[2,3-d]pyrimidin-7-yl)-5-((((3-methyl-5-phenylisoxazol-4-yl)methyl)thio)methyl)tetrahydrofuran-3,4-diol] | 500 to 2000
15 | Cc1nccc(-c2ccccc2)c1CSC[C@H]1O[C@@H](n2ccc3c(N)ncnc32)[C@H](O)[C@@H]1O [Compound 50c, (2R,3R,4S,5S)-2-(4-Amino-7H-pyrrolo[2,3-d]pyrimidin-7-yl)-5-((((2-methyl-4-phenylpyridin-3-yl)methyl)thio)methyl)tetrahydrofuran-3,4-diol] | 100 to 500
16 | Cc1noc(-c2ccccc2)c1CSC[C@H]1O[C@@H](n2cc(-c3ccc(-c4cccnc4)cc3)c3c(N)ncnc32)[C@H](O)[C@@H]1O [Compound 187] | 30 to 100
17 | Cc1noc(-c2ccccc2)c1CSC[C@H]1O[C@@H](n2cc(-c3ccc([N+](=O)[O-])nc3)c3c(N)ncnc32)[C@H](O)[C@@H]1O [Compound 152, (2R,3R,4S,5S)-2-(4-Amino-5-(6-nitropyridin-3-yl)-7H-pyrrolo[2,3-d]pyrimidin-7-yl)-5-((((3-methyl-5-phenylisoxazol-4-yl)methyl)thio)methyl)tetrahydrofuran-3,4-diol] | 30 to 100
18 | Cc1noc(-c2ccccc2)c1CSC[C@H]1O[C@@H](n2ccc3c(N)nc(Cl)nc32)[C@H](O)[C@@H]1O [Compound 204, (2R,3R,4S,5S)-2-(4-Amino-2-chloro-7H-pyrrolo[2,3-d]pyrimidin-7-yl)-5-((((3-methyl-5-phenylisoxazol-4-yl)methyl)thio)methyl)tetrahydrofuran-3,4-diol] | 10 to 30
19 | CC(C)c1onc(-c2ccccc2)c1CSC[C@H]1O[C@@H](n2ccc3c(N)ncnc32)[C@H](O)[C@@H]1O [Compound 107c, (2R,3R,4S,5S)-2-(4-Amino-7H-pyrrolo[2,3-d]pyrimidin-7-yl)-5-((((5-isopropyl-3-phenylisoxazol-4-yl)methyl)thio)methyl)tetrahydrofuran-3,4-diol] | 500 to 2000
20 | Cc1noc(-c2ccccc2)c1CSC[C@H]1O[C@@H](n2cc(C#Cc3ccnnc3)c3c(N)ncnc32)[C@H](O)[C@@H]1O [Compound 173b] | 10 to 30
21 | Cc1noc(-c2ccccc2)c1CSC[C@H]1O[C@@H](n2cc(CCCC#N)c3c(N)ncnc32)[C@H](O)[C@@H]1O [Compound 137b, 4-(4-Amino-7-((2R,3R,4S,5S)-3,4-dihydroxy-5-((((3-methyl-5-phenylisoxazol-4-yl)methyl)thio)methyl)tetrahydrofuran-2-yl)-7H-pyrrolo[2,3-d]pyrimidin-5-yl)butanenitrile] | 10 to 30
22 | Cc1nsc(-c2ccccc2)c1CSC[C@H]1O[C@@H](n2cc(I)c3c(N)ncnc32)[C@H](O)[C@@H]1O [Compound 245, (2R,3R,4S,5S)-2-(4-Amino-5-iodo-7H-pyrrolo[2,3-d]pyrimidin-7-yl)-5-((((3-methyl-5-phenylisothiazol-4-yl)methyl)thio)methyl)tetrahydrofuran-3,4-diol] | 30 to 100
23 | Cc1noc(-c2ccc(F)cc2)c1CSC[C@H]1O[C@@H](n2ccc3c(N)ncnc32)[C@H](O)[C@@H]1O [Compound 97c, (2R,3R,4S,5S)-2-(4-Amino-7H-pyrrolo[2,3-d]pyrimidin-7-yl)-5-((((5-(4-fluorophenyl)-3-methylisoxazol-4-yl)methyl)thio)methyl)tetrahydrofuran-3,4-diol] | 100 to 500
24 | Cc1ccc(-c2onc(C)c2CSC[C@H]2O[C@@H](n3cc(-c4ccc(C#N)cc4)c4c(N)ncnc43)[C@H](O)[C@@H]2O)cc1C [Compound 235b, 4-(4-Amino-7-((2R,3R,4S,5S)-5-((((5-(3,4-dimethylphenyl)-3-methylisoxazol-4-yl)methyl)thio)methyl)-3,4-dihydroxytetrahydrofuran-2-yl)-7H-pyrrolo[2,3-d]pyrimidin-5-yl)benzonitrile] | 30 to 100
25 | Cc1onc(-c2ccccc2)c1CSC[C@H]1O[C@@H](n2ccc3c(N)ncnc32)[C@H](O)[C@@H]1O [Compound 48c, (2R,3R,4S,5S)-2-(4-Amino-7H-pyrrolo[2,3-d]pyrimidin-7-yl)-5-((((5-methyl-3-phenylisoxazol-4-yl)methyl)thio)methyl)tetrahydrofuran-3,4-diol] | 100 to 500
26 | Cc1ncnc(-c2ccccc2)c1CSC[C@H]1O[C@@H](n2ccc3c(N)ncnc32)[C@H](O)[C@@H]1O [Compound 56c, (2R,3R,4S,5S)-2-(4-Amino-7H-pyrrolo[2,3-d]pyrimidin-7-yl)-5-((((4-methyl-6-phenylpyrimidin-5-yl)methyl)thio)methyl)tetrahydrofuran-3,4-diol] | 100 to 500
27 | Cc1noc(-c2ccccc2)c1CSC[C@H]1O[C@@H](n2cc(C#Cc3cnc4ccccc4n3)c3c(N)ncnc32)[C@H](O)[C@@H]1O [Compound 177b, (2R,3R,4S,5S)-2-(4-Amino-5-(quinoxalin-2-ylethynyl)-7H-pyrrolo[2,3-d]pyrimidin-7-yl)-5-((((3-methyl-5-phenylisoxazol-4-yl)methyl)thio)methyl)tetrahydrofuran-3,4-diol] | 30 to 100
28 | Cc1noc(-c2ccccc2)c1CSC[C@H]1O[C@@H](n2cc(-c3ccnn3C)c3c(N)ncnc32)[C@H](O)[C@@H]1O [Compound 154] | 30 to 100
